# From patent publication US7488425B2, “Method for photolyzing organic matter and method for treating wastewater” (Nisshinbo Industries, Inc., priority 2004, dated 2009)
# Where a name gives a salt, the structure may show the parent alone.
# How the values were obtained:
# [1] = Mixing with simple distilled water (phase separation, hydrophobicity); format: physicochemical
# Description: As used herein, “hydrophobic” refers to the property of, after being mixed or stirred with water, separating again into two phases on standing. While it suffices for the hydrophobic ionic liquid to have this quality, when the above photolytic process is employed for the subsequently described wastewater treatment or the like, a hydrophobic ionic liquid with a lower solubility in water will result in a smaller loss of ionic liquid during wastewater treatment and enable treated water having a higher degree of cleanliness to be obtained.
# (§1) The solubility in simple distilled water (25° C.) was about 1.5 wt %.
# [2] = Solubility of the ionic liquid in simple distilled water; format: physicochemical; conditions: 25° C.
# Procedure: as §1
behaviour when mixed with simple distilled water [1],solubility in simple distilled water [2],Structure (SMILES)
forms a homogeneous phase,,"CCn1cc[n+](C)c1.O=S(=O)([O-])C(F)(F)F [EMIMTfO, 1-ethyl-3-methylimidazolium trifluoromethanesulfonate, reference compound]"
separated into two phases,about 1.5 wt %,"CC[N+](C)(CC)CCOC [ionic liquid (2), Bis(trifluoromethanesulfonyl)imide Salt of N,N-Diethyl-N-methyl-N-(2-methoxyethyl)ammonium]"
